According to EP4782445A1, “CDK KINASE INHIBITOR AND USE THEREOF” (Abbisko Therapeutics Co., Ltd., priority 2023, dated 2025):

Experiments:
[1] = molecular target: T1, CDK4/cyclin D3 (Homo sapiens, UniProt P11802); assay: In vitro biochemical kinase activity assay for CDK4/cyclin D3 (HTRF)
T1 construct: purchased Carna
Description: II. In Vitro Biochemical Kinase Activity Assay for CDK4/Cyclin D3
The inhibitory effects of the compounds of the present invention on CDK4/cyclin D3 kinase activity were determined using an HTRF assay. The experimental process was as follows: • 1. The kinase reaction was carried out in a 384-well plate. 4.9 nM CDK4/cyclin D3 (Carna), 1 mM (or 80 µM) ATP, and 0.3 µM biotin-labeled substrate protein Rb-biotin (Cisbio) were incubated at 30°C for 90 min in a buffer system composed of 50 mM MgCl2, 1 mM DTT, and basal kinase buffer (Cisbio). • 2. The detection solution (Cisbio, containing reagents that specifically recognize phosphorylated Rb and Rb-biotin proteins, respectively) was added. The plate was then sealed with a film (to protect from light and volatilization) and incubated at 25°C for 60 min. • 3. The plate was transferred to an Envision plate reader to detect FRET signals. (The 665/615 ratio was calculated by reading the emission at 665 nm and 615 nM, respectively.) • 4. The IC50 values were determined by analyzing the inhibition at varying compound concentrations using Model 205 in the XLfit software.

[2] = molecular target: T2, CDK6/cyclin D3 (Homo sapiens, UniProt Q00534); assay: In vitro biochemical kinase activity assay for CDK6/cyclin D3 (HTRF)
T2 construct: purchased Carna
Description: III. In Vitro Biochemical Kinase Activity Assay for CDK6/Cyclin D3
The inhibitory effects of the compounds of the present invention on CDK6/cyclin D3 kinase activity were determined using an HTRF assay. The experimental process was as follows: 1. The kinase reaction was carried out in a 384-well plate. 0.02 nM CDK6/cyclin D3 (Carna), 1 mM (or 100 µM) ATP, and 0.3 µM biotin-labeled substrate protein Rb-biotin (Cisbio) were incubated at 30°C for 60 min in a buffer system composed of 5 mM MgCl2, 1 mM DTT, and basal kinase buffer (Cisbio). 2. The detection solution (Cisbio, containing reagents that specifically recognize phosphorylated Rb and Rb-biotin proteins, respectively) was added. The plate was then sealed with a film (to protect from light and volatilization) and incubated at 25°C for 60 min. 3. The plate was transferred to an Envision plate reader to detect FRET signals. (The 665/615 ratio was calculated by reading the emission at 665 nm and 615 nM, respectively.) 4. The IC50 values were determined by analyzing the inhibition at varying compound concentrations using Model 205 in the XLfit software.

[3] = data marked with *: 1 mM ATP in Step 1
[4] = unmarked data: 80 µM ATP in Step 1
[5] = unmarked data: 100 µM ATP in Step 1

T1 sequence (P11802 whole entry): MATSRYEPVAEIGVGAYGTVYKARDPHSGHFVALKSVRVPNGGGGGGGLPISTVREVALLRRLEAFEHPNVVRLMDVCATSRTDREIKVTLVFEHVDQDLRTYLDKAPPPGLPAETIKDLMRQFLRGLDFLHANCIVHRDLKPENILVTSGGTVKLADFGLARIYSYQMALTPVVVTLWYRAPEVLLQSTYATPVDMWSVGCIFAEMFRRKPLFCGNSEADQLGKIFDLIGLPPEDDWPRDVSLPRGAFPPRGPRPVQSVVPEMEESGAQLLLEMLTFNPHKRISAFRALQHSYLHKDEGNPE
T1 sequence (P30281 whole entry partner): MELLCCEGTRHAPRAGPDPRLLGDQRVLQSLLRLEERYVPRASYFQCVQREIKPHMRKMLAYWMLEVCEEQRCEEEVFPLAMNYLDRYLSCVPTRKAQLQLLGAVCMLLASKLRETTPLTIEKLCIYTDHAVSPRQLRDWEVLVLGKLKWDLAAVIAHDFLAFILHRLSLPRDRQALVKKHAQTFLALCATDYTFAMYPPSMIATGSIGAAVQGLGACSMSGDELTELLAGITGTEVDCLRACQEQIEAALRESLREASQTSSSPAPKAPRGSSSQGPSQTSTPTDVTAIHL
T2 sequence (Q00534 whole entry): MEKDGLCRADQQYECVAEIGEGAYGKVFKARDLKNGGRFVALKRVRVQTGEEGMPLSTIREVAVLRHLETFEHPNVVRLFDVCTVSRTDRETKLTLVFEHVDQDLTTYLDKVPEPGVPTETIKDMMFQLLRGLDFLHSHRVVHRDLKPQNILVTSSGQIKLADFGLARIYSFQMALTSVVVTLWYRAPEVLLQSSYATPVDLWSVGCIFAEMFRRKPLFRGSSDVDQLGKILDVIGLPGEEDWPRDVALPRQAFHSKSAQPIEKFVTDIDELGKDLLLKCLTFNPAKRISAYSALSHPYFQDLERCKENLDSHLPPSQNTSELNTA
T2 sequence (P30281 whole entry partner): as the sequence (P30281 whole entry partner) above

CC(=O)N1CC2(C1)CN(c1ccc(Nc3ncc(F)c(C#Cc4cnn(C)c4C(C)C)n3)nc1)C2 [Example 89, 1-(6-(6-((5-fluoro-4-((5-isopropyl-1-methyl-1H-pyrazol-4-yl)ethynyl)pyrimidin-2-yl)amino)pyridin-3-yl)-2,6-diazaspiro[3.3]heptan-2-yl)ethan-1-one]
IC50 [1, 3]: 16.2 nM | IC50 [2, 3]: 44.9 nM

CC(C)n1c(C#Cc2nc(Nc3ccc(C4CCN(C)CC4)cn3)ncc2F)cnc1C(C)(C)O [Example 73, 2-(5-((5-fluoro-2-((5-(1-methylpiperidin-4-yl)pyridin-2-yl)amino)pyrimidin-4-yl)ethynyl)-1-isopropyl-1H-imidazol-2-yl)propan-2-ol]
IC50 [1, 3]: 6.43 nM | IC50 [2, 3]: 26.7 nM

CC(C)n1c(C#Cc2nc(N[C@@H]3CCOC[C@H]3O)ncc2Cl)cnc1[C@@H](C)N1CCC[C@H](O)C1 [Example 123, (S)-1-((R)-1-(5-((5-chloro-2-(((3 S,4R)-3-hydroxytetrahydro-2H-pyran-4-yl)amino)pyrimidin-4-yl)ethynyl)-1-isopropyl-1H-imidazol-2-yl)ethyl)piperidin-3-ol]
IC50 [1, 3]: 36.9 nM | IC50 [2, 3]: 545 nM

CC(C)n1c(C#Cc2nc(N[C@@H]3CCOC[C@H]3O)ncc2Cl)cnc1C(C)(O)C1CC1 (stereo partly drawn) [Example 125, (3 S,4R)-4-((5-chloro-4-((2-(1-cyclopropyl-1-hydroxyethyl)-1-isopropyl-1H-imidazol-5-yl)ethynyl)pyrimidin-2-yl)amino)tetrahydro-2H-pyran-3-ol]
IC50 [1, 3]: 11.6 nM | IC50 [2, 3]: 65.4 nM

CC(C)c1nn(C)cc1C#Cc1nc(N[C@@H]2CCOC[C@H]2O)ncc1Cl [Example 54, (3 S,4R)-4-((5-chloro-4-((3-isopropyl-1-methyl-1H-pyrazol-4-yl)ethynyl)pyrimidin-2-yl)amino)tetrahydro-2H-pyran-3-ol]
IC50 [1, 4]: 59 nM | IC50 [2, 5]: 164 nM

CC(C)c1c(C#Cc2nc(N[C@@H]3CCN(S(C)(=O)=O)C[C@H]3O)ncc2Cl)cnn1C [Example 33, (3R,4R)-4-((5-chloro-4-((5-isopropyl-1-methyl-1H-pyrazol-4-yl)ethynyl)pyrimidin-2-yl)amino)-1-(methanesulfonyl)piperidin-3-ol]
IC50 [1, 3]: 1.35 nM | IC50 [2, 3]: 10.3 nM

CC(C)n1c(C#Cc2nc(N[C@H]3CC[C@H](NS(C)(=O)=O)CC3)ncc2Cl)cnc1C(C)(C)O [Example 99, N-((1R,4R)-4-((5-chloro-4-((2-(2-hydroxypropan-2-yl)-1-isopropyl-1H-imidazol-5-yl)ethynyl)pyrimidin-2-yl)amino)cyclohexyl)methanesulfonamide]
IC50 [1, 3]: 28.1 nM | IC50 [2, 3]: 190 nM

[2H]C([2H])(c1ncc(C#Cc2nc(Nc3ccc(CN4CCN(CC)CC4)cn3)ncc2Cl)n1C(C)C)N1CCC[C@H](O)C1 [Example 137, (S)-1-((5-((5-chloro-2-((5-((4-ethylpiperazin-1-yl)methyl)pyridin-2-yl)amino)pyrimidin-4-yl)ethynyl)-1-isopropyl-1H-imidazol-2-yl)methyl-d2)piperidin-3-ol]
IC50 [1, 3]: 3.17 nM | IC50 [2, 3]: 53 nM

CC(C)n1c(C#Cc2nc(Nc3ccc(C4C5CN(C)CC54)cn3)ncc2Cl)cnc1C(C)(C)O (stereo not shown) [Example 119, 2-(5-((5-chloro-2-((5-(3-methyl-3-azabicyclo[3.1.0]hexan-6-yl)pyridin-2-yl)amino)pyrimidin-4-yl)ethynyl)-1-isopropyl-1H-imidazol-2-yl)propan-2-ol]
IC50 [1, 3]: 5.37 nM | IC50 [2, 3]: 15.4 nM

CC(C)n1c(C#Cc2nc(Nc3ccc(N4CC5(CN(CC(F)(F)F)C5)C4)cn3)ncc2Cl)cnc1CN1CCC[C@H](O)C1 [Example 113, (S)-1-((5-((5-chloro-2-((5-(6-(2,2,2-trifluoroethyl)-2,6-diazaspiro[3.3]heptan-2-yl)pyridin-2-yl)amino)pyrimidin-4-yl)ethynyl)-1-isopropyl-1H-imidazol-2-yl)methyl)piperidin-3-ol]
IC50 [1, 3]: 5.95 nM | IC50 [2, 3]: 45.6 nM

(3 S,4R)-4-((5-chloro-4-((1-(1, 1-difluoropropan-2-yl)-1H-imidazol-5-yl)ethynyl)pyrimidin-2-yl)amino)tetrahydro-2H-pyran-3-ol [Example 134]
IC50 [1, 3]: 36.1 nM | IC50 [2, 3]: 230 nM

CCN1CC2(C1)CN(c1ccc(Nc3ncc(Cl)c(C#Cc4cnc(C(C)(C)O)n4C(C)C)n3)nc1)C2 [Example 71, 2-(5-((5-chloro-2-((5-(6-ethyl-2,6-diazaspiro[3.3]heptan-2-yl)pyridin-2-yl)amino)pyrimidin-4-yl)ethynyl)-1-isopropyl-1H-imidazol-2-yl)propan-2-ol]
IC50 [1, 3]: 2.52 nM | IC50 [2, 3]: 6.31 nM

CC(C)c1c(C#Cc2nc(N[C@@H]3CCOC[C@H]3O)ncc2Cl)cnn1CC(F)F [Example 128, (3 S,4R)-4-((5-chloro-4-((1-(2,2-difluoroethyl)-5-isopropyl-1H-pyrazol-4-yl)ethynyl)pyrimidin-2-yl)amino)tetrahydro-2H-pyran-3-ol]
IC50 [1, 3]: 53.3 nM | IC50 [2, 3]: 254 nM

CC(C)n1c(C#Cc2nc(N[C@@H]3CCOC[C@H]3C#N)ncc2Cl)cnc1C(C)(C)O [Example 101, (3R,4R)-4-((5-chloro-4-((2-(2-hydroxypropan-2-yl)-1-isopropyl-1H-imidazol-5-yl)ethynyl)pyrimidin-2-yl)amino)tetrahydro-2H-pyran-3-carbonitrile]
IC50 [1, 3]: 786 nM | IC50 [2, 3]: 4770 nM

CCN1CCN(Cc2ccc(Nc3cc(C#Cc4cnc(C(C)(C)O)n4C(C)C)c(Cl)cn3)nc2)CC1 [Example 77, 2-(5-((5-chloro-2-((5-((4-ethylpiperazin-1-yl)methyl)pyridin-2-yl)amino)pyridin-4-yl)ethynyl)-1-isopropyl-1H-imidazol-2-yl)propan-2-ol]
IC50 [1, 3]: 1.62 nM | IC50 [2, 3]: 5.94 nM

CC(C)n1c(C#Cc2nc(N[C@@H]3CCOC[C@H]3O)ncc2Cl)cnc1N1CCOC1=O [Example 126, 3-(5-((5-chloro-2-(((3S,4R)-3-hydroxytetrahydro-2H-pyran-4-yl)amino)pyrimidin-4-yl)ethynyl)-1-isopropyl-1H-imidazol-2-yl)oxazolidin-2-one]
IC50 [1, 3]: 17 nM | IC50 [2, 3]: 75.8 nM

CC(C)n1c(C#Cc2nc(Nc3ccc(C(=O)N(C)C)cn3)ncc2Cl)cnc1C(C)(C)O [Example 100, 6-((5-chloro-4-((2-(2-hydroxypropan-2-yl)-1-isopropyl-1H-imidazol-5-yl)ethynyl)pyrimidin-2-yl)amino)-N,N-dimethylnicotinamide]
IC50 [1, 3]: 6.69 nM | IC50 [2, 3]: 25.9 nM

CC(C)n1c(C#Cc2nc(N[C@@H]3CCNC[C@H]3O)ncc2Cl)cnc1C(C)(C)O [Example 60, (3R,4R)-4-((5-chloro-4-((2-(2-hydroxypropan-2-yl)-1-isopropyl-1H-imidazol-5-yl)ethynyl)pyrimidin-2-yl)amino)piperidin-3-ol]
IC50 [1, 4]: 47.6 nM | IC50 [2, 5]: 162 nM

CC(C)n1c(C#Cc2nc(N[C@@H]3CCOC[C@H]3O)ncc2Cl)cnc1C(=O)N1CCC[C@H](O)C1 [Example 117, (5-((5-chloro-2-(((3 S,4R)-3-hydroxytetrahydro-2H-pyran-4-yl)amino)pyrimidin-4-yl)ethynyl)-1-isopropyl-1H-imidazol-2-yl)((S)-3-hydroxypiperidin-1-yl)methanone]
IC50 [1, 3]: 615 nM | IC50 [2, 3]: 5550 nM

(3S,4R)-4-((5-chloro-4-((1-(1, 1-difluoropropan-2-yl)-2-(2-hydroxypropan-2-yl)-1H-imidazol-5-yl)ethynyl)pyrimidin-2-yl)amino)tetrahydro-2H-pyran-3-ol [Example 133]
IC50 [1, 3]: 260 nM | IC50 [2, 3]: 1140 nM

COC1COCC[C@H]1Nc1ncc(Cl)c(C#Cc2cnc(C(C)(C)O)n2C(C)C)n1 (stereo partly drawn) [Example 92, 2-(5-((5-chloro-2-(((4R)-3-methoxytetrahydro-2H-pyran-4-yl)amino)pyrimidin-4-yl)ethynyl)-1-isopropyl-1H-imidazol-2-yl)propan-2-ol]
IC50 [1, 3]: 99.7 nM | IC50 [2, 3]: 520 nM

CCN1CC2(C1)CN(c1ccc(Nc3ncc(Cl)c(C#Cc4cnc(CN5CCC[C@H](O)C5)n4C(C)C)n3)nc1)C2 [Example 108, (S)-1-((5-((5-chloro-2-((5-(6-ethyl-2,6-diazaspiro[3.3]heptan-2-yl)pyridin-2-yl)amino)pyrimidin-4-yl)ethynyl)-1-isopropyl-1H-imidazol-2-yl)methyl)piperidin-3-ol]
IC50 [1, 3]: 5.25 nM | IC50 [2, 3]: 51.9 nM

CC(C)n1c(C#Cc2nc(N[C@@H]3CCOC[C@H]3O)ncc2Cl)cnc1CN1CCC[C@@H](C#N)C1 [Example 98, (R)-1-((5-((5-chloro-2-(((3 S,4R)-3-hydroxytetrahydro-2H-pyran-4-yl)amino)pyrimidin-4-yl)ethynyl)-1-isopropyl-1H-imidazol-2-yl)methyl)piperidin-3-carbonitrile]
IC50 [1, 3]: 8.08 nM | IC50 [2, 3]: 198 nM
